Where two headings read alike, the source gives them in different places.
Tests used:
[1] = 2 steps

Compound `CCOC(=O)[C@@H]1Cc2nc(Br)sc2CCCC(=O)N(C)[C@@H](C(C)C)C(=O)N1` has a ring closure, isolated yield (from CCOC(=O)[C@@H](N)Cc1nc(Br)sc1CCCC(=O)N(C)[C@H](C(=O)O)C(C)C, amide bond, 12-membered ring, HATU/DIEA, DMF, 209.0 mM, 0.0 °C, 3 steps) of 28%.
Compound `COC(=O)[C@@H]1CCCN(C(=O)[C@@H]2Cc3cc(Br)cc(c3)CN(c3ccccc3)CCO[C@@H](C(C)C)C(=O)N2)N1` has a ring closure, isolated yield (from COC(=O)[C@@H]1CCCN(C(=O)[C@@H](N)Cc2cc(Br)cc(CN(CCO[C@H](C(=O)O)C(C)C)c3ccccc3)c2)N1, amide bond, 13-membered ring, EDCI/HOBt/DIEA, DCM, 107.0 mM, 25.0 °C, 2 steps) of 34%.
In the case of `COC(=O)[C@@H]1CCCN(C(=O)[C@H]2NC(=O)[C@H](C(C)C)N3CCC[C@@H]3COc3ccccc3CN(C)[C@@H]2c2nc(Br)cs2)N1`, the ring closure, isolated yield (from COC(=O)[C@@H]1CCCN(C(=O)[C@@H](N)[C@@H](c2nc(Br)cs2)N(C)Cc2ccccc2OC[C@H]2CCCN2[C@H](C(=O)O)C(C)C)N1, amide bond, 13-membered ring, HATU/DIEA, DMF, 12.4 mM, 20.0 °C, 2 steps) is reported as 55%.
With `COC(=O)[C@@H]1Cc2cc(cc(Cl)n2)C=CCOC[C@@H](C(C)C)C(=O)N1` the ring closure, isolated yield (from C=CCOC[C@H](C(=O)N[C@@H](Cc1cc(C=C)cc(Br)n1)C(=O)OC)C(C)C, rcm bond, 13-membered ring, Grubbs II (0.1 eq), DCM, 2.28 mM, 40.0 °C) was 81%.
Compound “(9S,15S,18R)-3-(5-(4-cyclopropylpiperazin-1-yl)-2-((S)-1-methoxyethyl)pyridin-3-yl)-2-ethyl-18-isopropyl-5,5-dimethyl-21-phenyl-2,4,5,6,9,10,11,12,15,16,19,22-dodecahydro-8H,14H-9,13-epimino-1,29-etheno-15,26-methano-24,28-(metheno)pyrrolo[3,4-u][1,17]dioxa[4,8,11]triazacyclononacosine-8,14,17(18H)-trione” has a ring closure, isolated yield (other bond, 13-membered ring, 2 steps) of 62%.
“(9S,15S,18R,21R)-3-(5-(4-cyclopropylpiperazin-1-yl)-2-((S)-1-methoxyethyl)pyridin-3-yl)-21-(2,6-dichloropyridin-4-yl)-2-ethyl-18-isopropyl-5,5-dimethyl-2,4,5,6,9,10,11,12,15,16,18,19,22,23-tetradecahydro-8H,21H-9,13-epimino-1,29-etheno-15,26-methano-24,28-(metheno)pyrrolo[3,4-l][1,17]dioxa[4,23,26]triazacyclononacosine-8,14,17-trione” showed a ring closure, isolated yield (amide bond, 13-membered ring, EDCI/HOBt/DIEA, DCM, 2 steps) of 66%.
“(9S,15S,18R,22S)-2-ethyl-18-isopropyl-3-(2-((S)-1-methoxyethyl)-5-(4-methylpiperazin-1-y)pyridin-3-yl)-5,5-dimethyl-22-phenyl-2,4,5,6,9,10,11,12,15,16,18,19,22,23-tetradecahydro-8H,21H-9,13-epimino-1,29-etheno-15,26-methano-24,28-(metheno)pyrrolo[3,4-l][1,17]dioxa[4,23,26]triazacyclononacosine-8,14,17-trione” showed a ring closure, isolated yield (amide bond, 13-membered ring, 2 steps) of 6.4%.
With “(9S,15S,18S)-3-(5-(4-cyclopropylpiperazin-1-yl)-2-((S)-1-methoxyethyl)pyridin-3-yl)-2-ethyl-18-isopropyl-5,5-dimethyl-22-phenyl-2,4,5,6,9,10,11,12,15,16,20,21,22,23-tetradecahydro-8H,14H-9,13-epimino-1,29-etheno-15,26-methano-24,28-(metheno)pyrrolo[3,4-q][1,13]dioxa[4,7,27]triazacyclononacosine-8,14,17(18H)-trione” the ring closure, yield after HPLC ([1]; ester bond, 18-membered ring) was 23%.
For “(9S,15S,18S)-25-benzyl-2-ethyl-18-isopropyl-3-(2-((S)-1-methoxyethyl)pyridin-3-yl)-5,5,19-trimethyl-2,4,5,6,9,10,11,12,15,16,18,19,22,23,24,25-hexadecahydro-8H-9,13-epimino-1,31-etheno-15,28-methano-26,30-(metheno)pyrrolo[3,4-a1][1]oxa[7,10,13,19]tetraazacyclohentriacontine-8,14,17,20(21H)-tetraone”, the ring closure, isolated yield (amide bond, 15-membered ring, 2 steps) was 95%.
Work on “(9S,15S,18S,20aS,21aR)-2-ethyl-18-isopropyl-3-(2-((S)-1-methoxyethyl)pyridin-3-yl)-5,5,19-trimethyl-2,4,5,6,9,10,11,12,15,16,18,19,21,21a,22,23-hexadecahydro-8H-9,13-epimino-1,29-etheno-15,26-methano-24,28-(metheno)cyclopropa[o]pyrrolo[3,4-z][1]oxa[7,10,13,18]tetraazacyclotriacontine-8,14,17,20(20aH)-tetraone” yielded a ring closure, yield after HPLC ([1]; amide bond, 14-membered ring) of 1.5%.
With “(9S,15S,18S,20aS,21aS,E)-2-ethyl-18-isopropyl-3-(2-((S)-1-methoxyethyl)pyridin-3-yl)-5,5,19-trimethyl-2,4,5,6,9,10,11,12,15,16,18,19,21,21a-tetradecahydro-8H-9,13-epimino-1,29-etheno-15,26-methano-24,28-(metheno)cyclopropa[o]pyrrolo[3,4-z][1]oxa[7,10,13]triazacyclotriacontine-8,14,17,20(20aH)-tetraone” the ring closure, isolated yield (rcm bond, 14-membered ring, Grubbs II (0.5 eq), DCM, 12.0 mM, 40.0 °C) was 11%.
“(9S,15S,18S,Z)-2-ethyl-18-isopropyl-3-(2-((S)-1-methoxyethyl)pyridin-3-yl)-5,5,19-trimethyl-2,4,5,6,9,10,11,12,15,16,18,19,23,24-tetradecahydro-8H,14H-9,13-epimino-1,30-etheno-15,27-methano-25,29-(metheno)pyrrolo[3,4-z][1]oxa[7,10,13,18]tetraazacyclotriacontine-8,14,17,20-tetraone” gave a ring closure, isolated yield (rcm bond, 14-membered ring, Grubbs II, DCM, 7.1 mM, 40.0 °C) of 16%.
With “tert-butyl 4-((9S,15S,18S,21 S)-3-(5-(4-cyclopropylpiperazin-1-yl)-2-((S)-1-methoxyethyl)pyridin-3-yl)-2-ethyl-18-isopropyl-5,5-dimethyl-8,14,17-trioxo-2,4,5,6,9,10,11,12,15,16,17,18,21,22-tetradecahydro-8H,14H,20H-9,13-epimino-1,29-etheno-15,26-methano-24,28-(metheno)pyrrolo[3,4-q][1,13,26]trioxa[4,7]diazacyclononacosin-21-yl)piperazine-1-carboxylate” the ring closure, isolated yield (ether bond, 13-membered ring) was 40%.
“tert-butyl ((9S,15S,18S,22R)-2-ethyl-18-isopropyl-3-(2-((S)-1-methoxyethyl)pyridin-3-yl)-5,5,19-trimethyl-8,14,17,20-tetraoxo-2,4,5,6,9,10,11,12,15,16,17,18,19,20,21,22,23,24-octadecahydro-8H,14H-9,13-epimino-1,31-etheno-15,28-methano-26,30-(metheno)pyrrolo[3,4-a1][1,19]dioxa[7,10,13]triazacyclohentriacontin-22-yl)carbamate” showed a ring closure, isolated yield (amide bond, 15-membered ring, 3 steps) of 27%.

Source: US20260028353
